Here are results for 26 compounds from patent US5032577A, “Peptidylaminodiols” (Abbott Laboratories, priority 1987, dated 1991).

pIC50: −log10 of the molar value. Where a name gives a salt, the structure may show the parent alone. Read-outs that look alike come from different tables or passages of the source.

The target of the test is T1, human renal renin (Homo sapiens, UniProt P00797).
T1 construct: human renal renin, free from acid proteolytic activity; from tissue
T1 sequence (P00797 67-406): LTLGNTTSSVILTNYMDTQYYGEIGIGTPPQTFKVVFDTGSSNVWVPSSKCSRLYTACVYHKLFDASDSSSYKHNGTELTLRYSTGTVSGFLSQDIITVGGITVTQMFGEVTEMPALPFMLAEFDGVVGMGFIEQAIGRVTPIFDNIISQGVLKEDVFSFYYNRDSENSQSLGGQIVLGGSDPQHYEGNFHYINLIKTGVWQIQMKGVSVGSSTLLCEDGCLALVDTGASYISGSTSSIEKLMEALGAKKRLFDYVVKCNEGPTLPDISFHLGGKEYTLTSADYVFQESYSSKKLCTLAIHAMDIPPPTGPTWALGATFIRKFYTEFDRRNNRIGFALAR
Briefly: Inhibition of human renal renin in vitro; angiotensin I formed measured by radioimmunoassay. Format: biochemical.

By pIC50 is commonly meant the IC50 on a negative log10 scale, so that one unit is a factor of ten. A low value points to a high IC50. `CC(C)C[C@H](O)[C@H](O)[C@H](CC1CCCCC1)NC(=O)[C@H](Cc1c[nH]cn1)NC(=O)[C@H](Cc1ccccc1)NC(=O)C1CCN(C(=O)OCc2ccccc2)CC1` [Example 67, Cbz-Isonipectoyl-Phe-His Amide of 2(S)-Amino-l-cyclohexyl-3(R),4(S)-dihydroxy-6-methylheptane] had a pIC50 of 9.10.

For the compound `CC(C)C[C@H](O)[C@H](O)[C@H](CC1CCCCC1)NC(=O)[C@H](Cc1c[nH]cn1)NC(=O)[C@H](Cc1ccccc1)NC(=O)C1CCNCC1` [Example 68, H-Isonipectoyl-Phe-His Amide of 2(S)-Amino-l-cyclohexyl-3(R),4(S)-dihydroxy-6-methylheptane Diacetic Acid Salt], the pIC50 is 9.00.

In turn, `CC(C)C[C@H](O)[C@H](O)[C@H](CC1CCCCC1)NC(=O)[C@H](Cc1c[nH]cn1)NC(=O)[C@H](Cc1ccccc1)NC(=O)[C@@H](C)NC(=O)OCc1ccccc1` [Example 69, Cbz-D-Ala-Phe-His Amide of 2(S)-Amino-l-cyclohexyl-3(R), 4(S)-dihydroxy-6-methylheptane] gave a pIC50 of 9.09. This pIC50 and that of the compound before are within 0.2 log units of each other.

In turn, `CC(C)C[C@H](O)[C@H](O)[C@H](CC1CCCCC1)NC(=O)[C@H](Cc1c[nH]cn1)NC(=O)[C@H](Cc1ccccc1)NC(=O)[C@@H](C)N` [Example 70, H-D-Ala-Phe-His Amide of 2(S)-Amino-l-cyclohexyl-3(R), 4(S)-dihydroxy-6-methylheptane Diacetic Acid Salt] showed a negative-log IC50 (pIC50) of 8.60. This pIC50 is 0.49 log units lower than that of the compound before.

Compound `CC(C)C[C@H](O)[C@H](O)[C@H](CC1CCCCC1)NC(=O)[C@H](Cc1c[nH]cn1)NC(=O)[C@H](Cc1ccccc1)NC(=O)CC(C)(C)NC(=O)OCc1ccccc1` [Example 74, Cbz-[(β,β-di-Me)-β-Ala]-Phe-His Amide of 2(S)-Amino-1-cyclohexyl-3(R),4(S)-dihydroxy-6-methylheptane] gave a pIC50 of 9.15.

`CC(C)C[C@H](O)[C@H](O)[C@H](CC1CCCCC1)NC(=O)[C@H](Cc1c[nH]cn1)NC(=O)[C@H](Cc1ccccc1)NC(=O)CC(C)(C)N` [Example 75, H-[(β,β-di-Me)-β-Ala]-Phe-His Amide of 2(S)-Amino-1-cyclohexyl-3(R),4(S)-dihydroxy-6-methylheptane Diacetic Acid Salt] gave a pIC50 of 9.40.

In turn, `CC(C)C[C@H](O)[C@H](O)[C@H](CC1CCCCC1)NC(=O)[C@H](Cc1c[nH]cn1)NC(=O)[C@H](Cc1ccccc1)NC(=O)[C@@H]1CCCN1C(=O)OCc1ccccc1` [Example 76, Cbz-Pro-Phe-His Amide of 2(S)-Amino-l-cyclohexyl-3(R), 4(S)-dihydroxy-6-methyl- heptane] gave a pIC50 of 9.30.

Turning to `CC(C)C[C@H](O)[C@H](O)[C@H](CC1CCCCC1)NC(=O)[C@H](Cc1c[nH]cn1)NC(=O)[C@H](Cc1ccccc1)NC(=O)[C@@H]1CCCN1` [Example 77, H-Pro-Phe-His Amide of 2(S)-Amino-l-cyclohexyl-3(R), 4(S)-dihydroxy-6-methylheptane Acetic Acid Salt], the negative-log IC50 (pIC50) is 9.01.

Turning to `CC(C)C[C@H](O)[C@H](O)[C@H](CC1CCCCC1)NC(=O)[C@H](Cc1c[nH]cn1)NC(=O)[C@H](Cc1ccccc1)NC(=O)OCc1ccccc1` [Example 83, Cbz-Phe-His Amide of 2(S)-Amino-l-cyclohexyl-3(R), 4(S)-dihydroxy-6-methylheptane], the pIC50 is 9.22. Compared with the last compound, the pIC50 is 0.21 log units higher.

Consider `CC(C)C[C@H](O)[C@H](O)[C@H](CC1CCCCC1)NC(=O)[C@H](Cc1c[nH]cn1)NC(=O)[C@@H](N)Cc1ccccc1` [Example 84, Phe-His Amide of 2(S)-Amino-l-cyclohexyl-3(R),4(S)-dihydroxy-6-methylheptane], for which the pIC50 is 8.00.

`CC(C)C[C@H](O)[C@H](O)[C@H](CC1CCCCC1)NC(=O)[C@H](Cc1c[nH]cn1)NC(=O)[C@H](Cc1ccccc1)NC(=O)C(C)(C)N` [Example 85, alpha-Aminoisobutyryl-Phe-His Amide of 2(S)-Amino-1-cyclohexyl-3(R),4(S)-dihydroxy-6-methylheptane] showed a pIC50 of 9.40.

Regarding `CC(C)C[C@H](O)[C@H](O)[C@H](CC1CCCCC1)NC(=O)[C@H](Cc1c[nH]cn1)NC(=O)[C@H](Cc1ccccc1)NC(=O)c1cnccn1` [Example 87, (Pyrazin-2-yl-carbonyl)-Phe-His Amide of 2(S)-Amino-1-cyclohexyl-3(R),4(S)-dihydroxy-6-methylheptane], the pIC50 was 9.26.

Turning to `CC(C)C[C@H](NC(=O)[C@H](Cc1ccccc1)NC(=O)Cc1c[nH]cn1)C(=O)N[C@@H](CC1CCCCC1)[C@@H](O)[C@@H](O)CC(C)C` [Example 88, (Imidazol-4-yl-acetyl)-Phe-Leu Amide of 2(S)-Amino-1-cyclohexyl-3(R),4(S)-dihydroxy-6-methylheptane], the pIC50 is 9.22.

Take `CC(C)C[C@H](O)[C@H](O)[C@H](CC1CCCCC1)NC(=O)[C@H](Cc1c[nH]cn1)NC(=O)[C@H](Cc1ccccc1)NC(=O)c1ccc[nH]1` [Example 89, (Pyrrol-2-yl-carbonyl)-Phe-His Amide of 2(S)-Amino-1-cyclohexyl-3(R),4(S)-dihydroxy-6-methylheptane]: the pIC50 was 9.00. Against the preceding compound, the pIC50 is 0.22 log units lower.

Turning to `C=CCOC(=O)N[C@@H](Cc1ccccc1)C(=O)N[C@@H](CC(C)C)C(=O)N[C@@H](CC1CCCCC1)[C@@H](O)[C@@H](O)CC(C)C` [Example 90, Allyloxycarbonyl-Phe-Leu Amide of 2(S)-Amino-l-cyclohexyl-3(R),4(S)-dihydroxy-6-methylheptaine], the pIC50 is 9.40.

In turn, `CC(C)C[C@H](NC(=O)[C@H](Cc1ccccc1)NC(=O)OCCCOC(=O)CNC(=O)OCc1ccccc1)C(=O)N[C@@H](CC1CCCCC1)[C@@H](O)[C@@H](O)CC(C)C` [Example 92, Cbz-Gly Ester of the Resultant Compound of Example 91 (at 3-Hydroxypropyloxy Group)] showed a pIC50 of 9.30.

Consider `CC(C)C[C@H](NC(=O)[C@H](Cc1ccccc1)NC(=O)OCCCOC(=O)CN)C(=O)N[C@@H](CC1CCCCC1)[C@@H](O)[C@@H](O)CC(C)C` [Example 93, H-Gly-Ester of the Resultant Compound of Example 91 (at 3-Hydroxypropyloxy Group)], for which the pIC50 is 9.26.

Take `CC(C)C[C@H](NC(=O)[C@H](Cc1ccccc1)NC(=O)OCC(O)CO)C(=O)N[C@@H](CC1CCCCC1)[C@@H](O)[C@@H](O)CC(C)C` (stereo partly drawn) [Example 97, 2(R,S),3-Dihydroxypropyloxycarbonyl-Phe-Leu Amide of 2(S) -Amino-1-cyclohexyl-3(R),4(S)-dihydroxy-6-methylheptane]: the pIC50 is 9.52.

As for `CC(C)C[C@H](O)[C@H](O)[C@H](CC1CCCCC1)NC(=O)[C@H](Cc1c[nH]cn1)NC(=O)[C@H](Cc1ccccc1)NC(=O)CO` [Example 103, Hydroxyacetyl-Phe-His Amide of 2(S)-Amino-l-cyclohexyl-3(R),4(S)-dihydroxy-6-methylheptane], the pIC50 is 9.00.

The compound `CC(C)C[C@H](O)[C@H](O)[C@H](CC1CCCCC1)NC(=O)[C@H](Cc1c[nH]cn1)NC(=O)[C@H](CCc1ccccc1)NC(=O)C(C)C` [Example 108, Isobutyryl-Homo-Phe-His Amide of 2(S)-Amino-l-cyclohexyl-3(R),4(S)-dihydroxy-6-methylheptane] showed a pIC50 of 9.26.

As to `CC(C)C[C@H](O)[C@H](O)[C@H](CC1CCCCC1)NC(=O)[C@H](Cc1c[nH]cn1)NC(=O)[C@H](Cc1ccccc1)OC(=O)N1CCOCC1` [Example 111, 2(S)-[(4-Morpholinyl)carbonyl]oxy-3-phenylpropionyl-His Amide of 2(S)-Amino-l-cyclohexyl-3(R),4(S)-dihydroxy-6-methylheptane], the pIC50 was 9.30.

In turn, `CC(C)C[C@H](O)[C@H](O)[C@H](CC1CCCCC1)NC(=O)[C@H](Cc1cnc[nH]1)NC(=O)[C@H](Cc1ccccc1)NC(=O)N1CCOCC1` [Example 118, [(4-Morpholinyl)carbonyl]-phe-His Amide of 2(S)-Amino-1-cyclohexyl-3(R),4(S)-dihydroxy-6-methylheptane] showed a pIC50 of 9.30.

Compound `CC(C)C[C@H](O)[C@H](O)[C@H](CC1CCCCC1)NC(=O)[C@H](Cc1c[nH]cn1)NC(=O)[C@H](Cc1ccccc1)NC(=O)N1CCNCC1` [Example 124, [(1-Piperazinyl)carbonyl]-Phe-His Amide of 2(S)-Amino-1-cyclohexyl-3(R),4(S)-dihydroxy-6-methylheptane Bis-Acetic Acid Salt] gave a pIC50 (human renal renin free from acid proteolytic activity, renin substrate human angiotensinogen, 37° C., pH 6.0) of 9.19.

`COc1ccc(C[C@H](NC(=O)CCCCCN)C(=O)N[C@@H](Cc2c[nH]cn2)C(=O)N[C@@H](CC2CCCCC2)[C@@H](O)[C@@H](O)CC(C)C)cc1` [Example 173, 6-Aminohexanoyl-(4-methoxy)Phe-His Amide of (2S, 3R, 4S)-2-Amino-1-cyclohexyl-3,4-dihydroxy-6-methylheptane Diacetate Salt] gave a pIC50 of 9.05.

In turn, `CC(C)C[C@H](O)[C@H](O)[C@H](CC1CCCCC1)NC(=O)[C@H](Cc1c[nH]cn1)NC(=O)C(NC(=O)N1CCOCC1)C(C)(C)c1ccccc1` (stereo partly drawn) [Example 178, 2(R,S)-[[(4-Morpholinyl)carbonyl]amino]-3,3-dimethyl-3-phenylpropionyl-His Amide of 2(S)-Amino-l-cyclohexyl-3(R),4(S)-dihydroxy-6-methylheptane] gave a pIC50 of 8.70.

Consider `COc1ccc(C[C@H](NC(=O)C2CCNCC2)C(=O)N[C@@H](Cc2c[nH]cn2)C(=O)N[C@@H](CC2CCCCC2)[C@@H](O)[C@@H](O)CC(C)C)cc1` [Example 179, H-Isonipecotyl-(4-OCH3)Phe-His Amide of 2(S)-Amino-1-cyclohexyl-3(R),4(S)-dihydroxy-6-methylheptane Diacetic Acid Salt], for which the pIC50 is 9.00.
